# Measurements reported in PMC12333015, “Profiling the Impact of mGlu7/Elfn1 Protein Interactions on the Pharmacology of mGlu7 Allosteric Modulators” (ACS Chemical Neuroscience, 2025).
# Read-outs that look alike come from different tables or passages of the source.
# Tests used:
# mGlu7/Elfn1 = target: T1, mGlu7/Elfn1 (Rattus norvegicus, UniProt P35400); experiment: Thallium flux assay, mGlu7/GIRK HEK293 cells cocultured with Elfn1-expressing cells; format: cell-based, mouse Elfn1; conditions: for baseline Resp ± SEM, Elfn1 / Maximal Resp ± SEM, Elfn1 / % inhibition Resp ± SEM, Elfn1: 10 μM compound; for baseline Resp ± SEM, Elfn1: average response at bottom three L-AP4 concentrations, Percent L-AP4/pcDNA/DMSO Max; for Maximal Resp ± SEM, Elfn1: average response at top two L-AP4 concentrations, normalized to L-AP4 max with pcDNA/DMSO; for % inhibition Resp ± SEM, Elfn1: of maximal L-AP4 response; for IC50: compound concentration-response in presence of 600 μM L-AP4 (EC80), read-out: compound pIC50 ± SEM, Elfn1 (converted); for compound Min Resp ± SEM, Elfn1: minimal curve fit response, 600 μM L-AP4, maximal inhibition at 30 μM compound, normalized to account for lower agonist max with Elfn1; for Emax: HEK293, read-out: PAM Maximal response, Elfn1; for Fold potentiation, Elfn1: fold potentiation of an EC20 concentration of L-AP4
# T1 construct: expressed in transfected cells; host or cells: HEK293A mGlu7/GIRK cells cocultured with HEK293A polyclonal cells stably expressing Elfn1-Myc (pcDNA3)
# T1 sequence (P35400 35-915): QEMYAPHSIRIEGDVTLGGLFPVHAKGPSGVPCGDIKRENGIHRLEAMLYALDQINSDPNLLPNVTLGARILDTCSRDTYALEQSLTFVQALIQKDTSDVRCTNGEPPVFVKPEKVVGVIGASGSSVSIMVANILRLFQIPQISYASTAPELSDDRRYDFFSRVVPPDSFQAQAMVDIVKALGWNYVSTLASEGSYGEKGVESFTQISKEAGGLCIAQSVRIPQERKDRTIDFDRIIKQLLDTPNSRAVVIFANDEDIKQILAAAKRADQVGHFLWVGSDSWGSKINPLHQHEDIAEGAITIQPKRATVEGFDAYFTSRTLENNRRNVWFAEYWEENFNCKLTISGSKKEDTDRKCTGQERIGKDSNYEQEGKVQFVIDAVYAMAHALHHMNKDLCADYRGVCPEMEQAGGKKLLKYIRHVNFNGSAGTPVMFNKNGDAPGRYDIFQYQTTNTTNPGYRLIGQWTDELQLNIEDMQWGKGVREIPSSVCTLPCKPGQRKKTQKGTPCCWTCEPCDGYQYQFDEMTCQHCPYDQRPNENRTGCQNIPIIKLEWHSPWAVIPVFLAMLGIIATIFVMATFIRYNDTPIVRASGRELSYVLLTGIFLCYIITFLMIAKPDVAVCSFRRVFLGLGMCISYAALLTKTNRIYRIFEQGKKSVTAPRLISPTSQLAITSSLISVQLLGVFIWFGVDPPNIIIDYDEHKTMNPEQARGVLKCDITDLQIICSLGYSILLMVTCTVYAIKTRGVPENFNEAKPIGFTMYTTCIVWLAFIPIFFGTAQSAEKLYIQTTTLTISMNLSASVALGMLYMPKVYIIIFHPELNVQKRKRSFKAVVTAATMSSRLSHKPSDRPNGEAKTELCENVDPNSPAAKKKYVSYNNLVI
# T1 sequence (Q8C8T7 26-828 partner): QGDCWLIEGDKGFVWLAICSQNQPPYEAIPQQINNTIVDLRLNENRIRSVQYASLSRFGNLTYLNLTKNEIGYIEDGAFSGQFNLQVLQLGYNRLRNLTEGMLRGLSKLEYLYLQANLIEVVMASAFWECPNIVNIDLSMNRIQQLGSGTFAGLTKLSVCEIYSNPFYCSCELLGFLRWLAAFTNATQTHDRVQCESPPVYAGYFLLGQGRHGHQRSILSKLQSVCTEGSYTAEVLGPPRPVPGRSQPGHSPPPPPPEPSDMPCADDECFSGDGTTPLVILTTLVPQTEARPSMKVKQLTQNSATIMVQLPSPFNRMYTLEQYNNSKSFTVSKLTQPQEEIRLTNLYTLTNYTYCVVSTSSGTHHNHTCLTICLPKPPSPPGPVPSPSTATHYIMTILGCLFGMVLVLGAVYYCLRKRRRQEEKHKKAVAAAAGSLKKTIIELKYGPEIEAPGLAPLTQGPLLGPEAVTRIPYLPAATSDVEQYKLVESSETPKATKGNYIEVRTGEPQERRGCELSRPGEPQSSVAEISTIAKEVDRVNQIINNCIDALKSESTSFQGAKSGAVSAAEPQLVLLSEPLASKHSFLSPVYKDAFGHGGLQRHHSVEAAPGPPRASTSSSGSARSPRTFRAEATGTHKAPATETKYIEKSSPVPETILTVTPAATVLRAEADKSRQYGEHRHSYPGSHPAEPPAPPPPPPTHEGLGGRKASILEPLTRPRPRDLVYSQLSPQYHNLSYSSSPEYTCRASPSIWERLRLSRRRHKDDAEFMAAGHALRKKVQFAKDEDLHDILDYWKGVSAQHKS
# Excerpt: (§1) We began our evaluation of mGlu7 ligands in the presence and absence of Elfn1 by using a coculture system as previously described , with several modifications (Figure ). Cells expressing rat mGlu7 and coexpressing G protein inwardly rectifying potassium (GIRK) channels 1 and 2 were cocultured with cells expressing either an empty pcDNA3 vector control or a plasmid containing Elfn1 in the pcDNA3 backbone. We then evaluated the activity of the orthosteric agonist L-AP4 and measured effects on maximal response and pEC50. All responses were normalized to the maximal effect of L-AP4 in the presence of the pcDNA3 control plasmid.
# (§2) 2 Assay design and workflow. (Left panel) Cells expressing rat mGlu7/GIRK (pink) were cocultured with pcDNA3 (blue) or Elfn1 (purple). […] (Right panel) The effect on the concentration–response curve in the presence (purple) or absence (blue) of Elfn1 can be seen by a change in efficacy, potency, and/or basal response.
# HEK293A polyclonal cells stably expressing either Elfn1 or empty vector were passaged in media (Dulbecco’s modified Eagle medium (DMEM), supplemented with 10% fetal bovine serum (FBS), 20 mM N-(2-hydroxyethyl)-piperazine-N′-ethanesulfonic acid (HEPES), 1 mM Na pyruvate, 2 mM Glutamax, 0.1 mM nonessential amino acids, 1× antibiotic/antimycotic) under G418 (700 μg/mL) selection to maintain expression.
# (§3) HEK293A cells stably expressing mouse Elfn1 or pcDNA3 were maintained in growth medium containing 90% Dulbecco’s Modified Eagle Media (DMEM), 10% fetal bovine serum (FBS), 100 units/mL penicillin/streptomycin, 20 mM HEPES, 1 mM sodium pyruvate, 2 mM L-glutamine, 1× nonessential amino acids, and 700 μg/mL G418 sulfate. HEK mGlu7/GIRK cells were maintained in a growth medium with 90% DMEM/F12, 10% dialyzed FBS, 100 units/mL penicillin/streptomycin, 20 mM HEPES, 1 mM sodium pyruvate, 2 mM L-glutamine, 1× nonessential amino acids, 700 μg/mL G418 sulfate, and 600 ng/mL puromycin. All cell culture reagents were purchased from Invitrogen (Carlsbad, CA).
# (§4) Thallium flux assays were performed as previously described. A mixture of HEK293A mGlu7/GIRK cells and pcDNA3 or Elfn1-expressing HEK293A cells (5000/15,000 cells/20 μL/well for agonist and PAM experiments; 7500/15,000 cells/20 μL/well for NAM experiments) was seeded in 384-well, amine-coated assay plates (Greiner Bio-One, Monroe, NC). Cells were incubated overnight in a humidified 5% CO2 cell culture incubator at 37 °C. […] Following a 1 h incubation at room temperature, the dye loading solution was replaced with 20 μL/well assay buffer and the plates were loaded into a Hamamatsu FDSS 7000 (Bridgewater, NJ). Data were acquired at 1 Hz (excitation 470 ± 20 nm, emission 540 ± 30 nm) for 10 s, followed by the addition of 20 μL/well of 10 μM NAM/PAM/DMSO, followed by an additional 4 min of data collection. […] Thallium flux data were analyzed by first dividing each point in each wave by the first point in that wave and then subtracting the average of the vehicle control response. The slopes of these vehicle control-subtracted waves were calculated over ten data points beginning 2 s after thallium stimulus addition and fit to a three-parameter logistic equation in GraphPad Prism (La Jolla, CA). In most cases, the final data were normalized to the response of the mGlu7/pcDNA3 with vehicle and 5 mM L-AP4 unless otherwise noted. Potency (pEC50) and maximum responses (E max) induced by compounds were determined using a four-parameter logistical equation in Prism.
# rat mGlu7 = target: T2, rat mGlu7 (Rattus norvegicus, UniProt P35400); experiment: Thallium flux assay, mGlu7/GIRK HEK293 cells cocultured with pcDNA3 vector control cells; format: cell-based; conditions: for baseline Resp ± SEM, pcDNA / Maximal Resp ± SEM, pcDNA / response below baseline at inactive L-AP4 concentrations / % inhibition Resp ± SEM, pcDNA: 10 μM compound; for baseline Resp ± SEM, pcDNA: average response at bottom three L-AP4 concentrations, Percent L-AP4/pcDNA/DMSO Max; for Maximal Resp ± SEM, pcDNA: average response at top two L-AP4 concentrations, normalized to L-AP4 max with pcDNA/DMSO; for response below baseline at inactive L-AP4 concentrations: observed regardless of the presence of Elfn1; for % inhibition Resp ± SEM, pcDNA: of maximal L-AP4 response; for IC50: compound concentration-response in presence of 600 μM L-AP4 (EC80), read-out: compound pIC50 ± SEM, pcDNA (converted); for compound Min Resp ± SEM, pcDNA: minimal curve fit response, 600 μM L-AP4, maximal inhibition at 30 μM compound, normalized to 600 μM L-AP4 response; for Emax: HEK293, read-out: PAM Maximal response, pcDNA; for Emax / EC50: PAM concentration-response at an EC20 concentration of L-AP4; for Fold potentiation, pcDNA: fold potentiation of an EC20 concentration of L-AP4
# T2 construct: expressed in transfected cells; host or cells: HEK293A cells stably expressing mGlu7 and GIRK1/2
# T2 sequence (P35400 35-915): as the sequence (P35400 35-915) above
# Excerpt: as §1, §2, §3
# as §4, with “NJ).” for “NJ). Data were acquired at 1 Hz (excitation 470 ± 20 nm, emission 540 ± 30 nm) for 10 s, followed by the addition of 20 μL/well of 10 μM NAM/PAM/DMSO, followed by an additional 4 min of data collection.”, “Prism. Basal activity was calculated with data points at the three lowest test concentrations. Maximum activity was calculated with data points at two highest concentrations. All experiments were replicated at least three times in duplicate or triplicate.” for “Prism.”
# [1] = 10 μM NAM, three lowest L-AP4 concentrations, normalized to mGlu7/pcDNA3 vehicle L-AP4 max
# [2] = 10 μM PAM, L-AP4 CRC, normalized to percent L-AP4 response with pcDNA and DMSO
# [3] = PAM concentration-response at an EC20 concentration of L-AP4
structure (smiles),measurement,setting,value
"O=c1c(Oc2ccc(I)cc2)coc2cc(O)ccc12 [XAP044, reference compound]","baseline Resp ± SEM, Elfn1",mGlu7/Elfn1,–6.5 ± 1.3 %
same,"Maximal Resp ± SEM, Elfn1",mGlu7/Elfn1,–13.2 ± 1.7 %
same,"% inhibition Resp ± SEM, Elfn1",mGlu7/Elfn1,–30.4 ± 2.9 %
same,IC50,mGlu7/Elfn1,380 nM
same,"compound Min Resp ± SEM, Elfn1",mGlu7/Elfn1,2.5 ± 8.4
same,"baseline Resp ± SEM, pcDNA",rat mGlu7,–11.4 ± 4.8 %
same,"Maximal Resp ± SEM, pcDNA",rat mGlu7,1.7 ± 3.6 %
same,response below baseline at inactive L-AP4 concentrations,rat mGlu7,inverse agonist activity
same,"% inhibition Resp ± SEM, pcDNA",rat mGlu7,1.6 ± 3.5%
same,IC50,rat mGlu7,1660 nM
same,"compound Min Resp ± SEM, pcDNA",rat mGlu7,6.9 ± 6.5
COc1ccc(-c2cnc(-c3cc(OC(F)(F)F)ccc3-n3cncn3)o2)cc1OC [VU6018226],"baseline response ± SEM, Elfn1",mGlu7/Elfn1; [1],0.2 ± 3.5
same,"baseline response ± SEM, pcDNA",rat mGlu7; [1],–6.6 ± 1.8
COc1cc(F)cc2c(N3CCN(c4ccccc4F)CC3)c(C#N)cnc12 [VU6027459],"baseline response ± SEM, Elfn1",mGlu7/Elfn1; [2],12.5±8.4%
same,Emax,mGlu7/Elfn1; [3],44.1 ± 4.5%
same,EC50,"mGlu7/Elfn1; PAM pEC50, Elfn1, PAM concentration-response at an EC20 concentration of L-AP4",1620 nM
same,"Fold potentiation, Elfn1",mGlu7/Elfn1,2.0±0.2 fold
same,"baseline response ± SEM, pcDNA",rat mGlu7; [2],25.6±12.0%
same,Emax,rat mGlu7,75.8 ± 5.2%
same,EC50,"rat mGlu7; PAM pEC50, pcDNA",1000 nM
same,"Fold potentiation, pcDNA",rat mGlu7,3.0±0.4 fold
COc1ccc(-c2nnc(-c3cc(OC(F)(F)F)ccc3-c3cn[nH]c3)o2)cc1OC [VU6019282],"baseline response ± SEM, Elfn1",mGlu7/Elfn1; [1],–0.7 ± 4.5
same,"baseline response ± SEM, pcDNA",rat mGlu7; [1],–5.3 ± 3.7
COc1ccc(-c2noc(-c3cc(Cl)ccc3-n3cncn3)n2)cc1OC [VU6017743],"baseline response ± SEM, Elfn1",mGlu7/Elfn1; [1],–5.7 ± 5.9
same,"baseline response ± SEM, pcDNA",rat mGlu7; [1],–11.5 ± 4.7
"CCc1nc2c(o1)CC(c1ccc(C)cc1C)CC2=O (centres unmarked) [ADX71743, reference compound]","baseline Resp ± SEM, Elfn1",mGlu7/Elfn1,–12.7 ± 2.9 %
same,"Maximal Resp ± SEM, Elfn1",mGlu7/Elfn1,–10.1 ± 1.7 %
same,"% inhibition Resp ± SEM, Elfn1",mGlu7/Elfn1,–22.4 ± 3.4 %
same,IC50,mGlu7/Elfn1,141 nM
same,"compound Min Resp ± SEM, Elfn1",mGlu7/Elfn1,–28.5 ± 5.5
same,"baseline Resp ± SEM, pcDNA",rat mGlu7,–21.5 ± 2.0 %
same,"Maximal Resp ± SEM, pcDNA",rat mGlu7,–0.08 ± 1.4 %
same,response below baseline at inactive L-AP4 concentrations,rat mGlu7,inverse agonist activity
same,"% inhibition Resp ± SEM, pcDNA",rat mGlu7,–0.11 ± 1.4%
same,IC50,rat mGlu7,195 nM
same,"compound Min Resp ± SEM, pcDNA",rat mGlu7,–32.9 ± 8.0
COc1ccc(C(=O)Nc2cc(OC(F)(F)F)ccc2-n2cncn2)cc1OC [VU6010608],"baseline response ± SEM, Elfn1",mGlu7/Elfn1; [1],–9.0 ± 0.9
same,"baseline response ± SEM, pcDNA",rat mGlu7; [1],–14.5 ± 2.6
"COc1cc(C(=O)Nc2cc(OC(F)(F)F)ccc2-n2cncn2)ccc1OCC1CC1 [VU6012962, N-(2-(1 H-1,2,4-triazol-1-yl)-5-(trifluoromethoxy)phenyl)-4-(cyclopropylmethoxy)-3-methox ybenzamide]","baseline response ± SEM, Elfn1",mGlu7/Elfn1; [1],–8.1 ± 2.0
same,"baseline response ± SEM, pcDNA",rat mGlu7; [1],–19.1 ± 2.4
CCCOc1ccc(C(=O)Nc2cc(OC(F)(F)F)ccc2-n2cncn2)cc1OC [VU6010953],"baseline response ± SEM, Elfn1",mGlu7/Elfn1; [1],–8.1 ± 1.1
same,"baseline response ± SEM, pcDNA",rat mGlu7; [1],–12.5 ± 2.2
COC(=O)c1ccc(-n2c(C)cc(C(=O)CSc3ccc(NC(C)=O)cc3)c2C)cc1 [VU0155094],"baseline response ± SEM, Elfn1",mGlu7/Elfn1; [2],1.0±1.7%
same,Emax,mGlu7/Elfn1; [3],66.3 ± 3.6%
same,EC50,"mGlu7/Elfn1; PAM concentration-response at an EC20 concentration of L-AP4, read-out: PAM pEC50, Elfn1 (converted)",2820 nM
same,"Fold potentiation, Elfn1",mGlu7/Elfn1,2.7±0.2 fold
same,"baseline response ± SEM, pcDNA",rat mGlu7; [2],6.4±2.3%
same,Emax,rat mGlu7,138 ± 5.2%
same,EC50,"rat mGlu7; read-out: PAM pEC50, pcDNA (converted)",3550 nM
same,"Fold potentiation, pcDNA",rat mGlu7,4.4±0.3 fold
